What was measured:
[1] = Lipophilicity determined as logarithm of the partition coefficient in the alkane/water system; settings: octanol/water
[2] = Tested for fraction of oral dose absorbed orally in humans; format: ADME; settings: human

## C=CCc1ccccc1OCC(O)CNC(C)C (stereo not given) [ALPRENOLOL]
[1]
  Log PNalk: 1.3
[2]
  Activity: 96%

## Cc1cc(=O)n(-c2ccccc2)n1C [ANTIPYRINE]
[2]
  Activity: 97%

## OC[C@@H](O)[C@@H](O)[C@H](O)[C@H](O)CO [MANNITOL]
[2]
  Activity: 26%

## CC(C)NCC(O)COc1cccc2[nH]ccc12 (stereo not given) [PINDOLOL]
[2]
  Activity: 92%

## O=C(O)c1cc(/N=N/c2ccc(S(=O)(=O)Nc3ccccn3)cc2)ccc1O [SULFASALAZINE]
[2]; read-out: Activity
  Fa: 13%

## CC(C)(C)c1ccc(C(O)CCCN2CCC(C(O)(c3ccccc3)c3ccccc3)CC2)cc1 (stereo not given) [TERFENADINE]
[1]
  Log PNalk: 2.63

## C[C@]12CC[C@H]3[C@@H](CCC4=CC(=O)CC[C@@]43C)[C@@H]1CC[C@@H]2O [TESTOSTERONE]
[1]
  Log PNalk: 0.41

## CCCCNc1ccc(C(=O)OCCN(C)C)cc1 [TETRACAINE]
[1]
  Log PNalk: 1.75

## C1CCSC1 [TETRAHYDROTHIOPHENE]
[1]
  Log PNalk: 1.59

## Cn1c(=O)c2[nH]cnc2n(C)c1=O.O [THEOPHYLLINE]
[1]
  Log PNalk: -1.7

## CCCC(C)C1(CC)C(=O)NC(=S)NC1=O (stereo not given) [THIOPENTAL]
[1]
  Log PNalk: 0.52

## Cc1ccc(C(C)C)c(O)c1 [THYMOL]
[1]
  Log PNalk: 1.4

## CC(C)(C)NC[C@H](O)COc1nsnc1N1CCOCC1 [TIMOLOL]
[1]
  Log PNalk: -1

## COc1cccc([C@@]2(O)CCCC[C@@H]2CN(C)C)c1 [TRAMADOL]
[1]
  Log PNalk: 1.82

## O=C(O)C(Cl)(Cl)Cl [TRICHLOROACETIC ACID]
[1]
  Log PNalk: -2.63

## CC(Cl)(Cl)Cl [TRICHLOROETHANE]
[1]
  Log PNalk: 2.71

## CC(=O)CC(c1ccccc1)c1c(O)c2ccccc2oc1=O (stereo not given) [WARFARIN]
[1]
  Log PNalk: 0.05

## COc1ccc(C(=O)O)cc1 [p-ANISIC ACID]
[1]
  Log PNalk: -0.15

## Cc1ccc(O)cc1 [p-CRESOL]
[1]
  Log PNalk: -0.19
